Experimental data published in the NIST ThermoML archive (doi:10.1021/je900672g).
Numbers after ± are expanded uncertainties.

Test: isobaric coefficient of expansion
Settings: Liquid, DSC

N#Cc1ccccc1 [benzonitrile]
isobaric coefficient of expansion
Settings | 5000 kPa | 10000 kPa | 15000 kPa | 20000 kPa | 25000 kPa | 30000 kPa | 35000 kPa | 40000 kPa | 45000 kPa | 50000 kPa
278.15 K | 0.000841 ± 2.1e-05 1/K | 0.000831 ± 2e-05 1/K | 0.000829 ± 2e-05 1/K | 0.000812 ± 2e-05 1/K | 0.000795 ± 1.9e-05 1/K | 0.000791 ± 1.9e-05 1/K | 0.00078 ± 1.9e-05 1/K | 0.000772 ± 1.9e-05 1/K | 0.00076 ± 1.9e-05 1/K | 0.000752 ± 1.8e-05 1/K
288.15 K | 0.000845 ± 2.1e-05 1/K | 0.000832 ± 2e-05 1/K | 0.000819 ± 2e-05 1/K | 0.000811 ± 2e-05 1/K | 0.000799 ± 2e-05 1/K | 0.000789 ± 1.9e-05 1/K | 0.000772 ± 1.9e-05 1/K | 0.000771 ± 1.9e-05 1/K | 0.000759 ± 1.9e-05 1/K | 0.000754 ± 1.8e-05 1/K
298.15 K | 0.000849 ± 2.1e-05 1/K | 0.000832 ± 2e-05 1/K | 0.000825 ± 2e-05 1/K | 0.000809 ± 2e-05 1/K | 0.000798 ± 2e-05 1/K | 0.000788 ± 1.9e-05 1/K | 0.000775 ± 1.9e-05 1/K | 0.000773 ± 1.9e-05 1/K | 0.000759 ± 1.9e-05 1/K | 0.000749 ± 1.8e-05 1/K
308.15 K | 0.000852 ± 2.1e-05 1/K | 0.000842 ± 2.1e-05 1/K | 0.000827 ± 2e-05 1/K | 0.000814 ± 2e-05 1/K | 0.000799 ± 2e-05 1/K | 0.000788 ± 1.9e-05 1/K | 0.000773 ± 1.9e-05 1/K | 0.000765 ± 1.9e-05 1/K | 0.000755 ± 1.9e-05 1/K | 0.000743 ± 1.8e-05 1/K
318.15 K | 0.000857 ± 2.1e-05 1/K | 0.00084 ± 2.1e-05 1/K | 0.000826 ± 2e-05 1/K | 0.000811 ± 2e-05 1/K | 0.000798 ± 2e-05 1/K | 0.000789 ± 1.9e-05 1/K | 0.000773 ± 1.9e-05 1/K | 0.000764 ± 1.9e-05 1/K | 0.000754 ± 1.8e-05 1/K | 0.000743 ± 1.8e-05 1/K
328.15 K | 0.000853 ± 2.1e-05 1/K | 0.000837 ± 2.1e-05 1/K | 0.000819 ± 2e-05 1/K | 0.000808 ± 2e-05 1/K | 0.000794 ± 1.9e-05 1/K | 0.000782 ± 1.9e-05 1/K | 0.000772 ± 1.9e-05 1/K | 0.00076 ± 1.9e-05 1/K | 0.000751 ± 1.8e-05 1/K | 0.000736 ± 1.8e-05 1/K
338.15 K | 0.000863 ± 2.1e-05 1/K | 0.000843 ± 2.1e-05 1/K | 0.000826 ± 2e-05 1/K | 0.000813 ± 2e-05 1/K | 0.000799 ± 2e-05 1/K | 0.000786 ± 1.9e-05 1/K | 0.000776 ± 1.9e-05 1/K | 0.000762 ± 1.9e-05 1/K | 0.000747 ± 1.8e-05 1/K | 0.000738 ± 1.8e-05 1/K
348.15 K | 0.00087 ± 2.1e-05 1/K | 0.00085 ± 2.1e-05 1/K | 0.000832 ± 2e-05 1/K | 0.000818 ± 2e-05 1/K | 0.000802 ± 2e-05 1/K | 0.000788 ± 1.9e-05 1/K | 0.000774 ± 1.9e-05 1/K | 0.000761 ± 1.9e-05 1/K | 0.000749 ± 1.8e-05 1/K | 0.000737 ± 1.8e-05 1/K

C[N+](=O)[O-] [nitromethane]
isobaric coefficient of expansion
Settings | 278.15 K | 288.15 K | 298.15 K | 308.15 K | 318.15 K | 328.15 K | 338.15 K | 348.15 K
5000 kPa | 0.00116 ± 2.8e-05 1/K | 0.00118 ± 2.9e-05 1/K | 0.00121 ± 3e-05 1/K | 0.00123 ± 3e-05 1/K | 0.00126 ± 3.1e-05 1/K | 0.00129 ± 3.2e-05 1/K | 0.00134 ± 3.3e-05 1/K | 0.00138 ± 3.4e-05 1/K
10000 kPa | 0.00114 ± 2.8e-05 1/K | 0.00116 ± 2.8e-05 1/K | 0.00118 ± 2.9e-05 1/K | 0.0012 ± 2.9e-05 1/K | 0.00123 ± 3e-05 1/K | 0.00126 ± 3.1e-05 1/K | 0.00128 ± 3.1e-05 1/K | 0.00132 ± 3.2e-05 1/K
15000 kPa | 0.00113 ± 2.8e-05 1/K | 0.00114 ± 2.8e-05 1/K | 0.00116 ± 2.8e-05 1/K | 0.00118 ± 2.9e-05 1/K | 0.00119 ± 2.9e-05 1/K | 0.00121 ± 3e-05 1/K | 0.00124 ± 3e-05 1/K | 0.00127 ± 3.1e-05 1/K
20000 kPa | 0.0011 ± 2.7e-05 1/K | 0.00112 ± 2.7e-05 1/K | 0.00113 ± 2.8e-05 1/K | 0.00115 ± 2.8e-05 1/K | 0.00116 ± 2.8e-05 1/K | 0.00117 ± 2.9e-05 1/K | 0.0012 ± 3e-05 1/K | 0.00122 ± 3e-05 1/K
25000 kPa | 0.00108 ± 2.6e-05 1/K | 0.0011 ± 2.7e-05 1/K | 0.00111 ± 2.7e-05 1/K | 0.00112 ± 2.7e-05 1/K | 0.00113 ± 2.8e-05 1/K | 0.00114 ± 2.8e-05 1/K | 0.00117 ± 2.9e-05 1/K | 0.00119 ± 2.9e-05 1/K
30000 kPa | 0.00106 ± 2.6e-05 1/K | 0.00108 ± 2.6e-05 1/K | 0.00109 ± 2.7e-05 1/K | 0.0011 ± 2.7e-05 1/K | 0.00111 ± 2.7e-05 1/K | 0.00112 ± 2.7e-05 1/K | 0.00113 ± 2.8e-05 1/K | 0.00115 ± 2.8e-05 1/K
35000 kPa | 0.00105 ± 2.6e-05 1/K | 0.00106 ± 2.6e-05 1/K | 0.00107 ± 2.6e-05 1/K | 0.00108 ± 2.6e-05 1/K | 0.00109 ± 2.7e-05 1/K | 0.0011 ± 2.7e-05 1/K | 0.00111 ± 2.7e-05 1/K | 0.00112 ± 2.7e-05 1/K
40000 kPa | 0.00103 ± 2.5e-05 1/K | 0.00104 ± 2.6e-05 1/K | 0.00105 ± 2.6e-05 1/K | 0.00105 ± 2.6e-05 1/K | 0.00106 ± 2.6e-05 1/K | 0.00107 ± 2.6e-05 1/K | 0.00107 ± 2.6e-05 1/K | 0.00108 ± 2.6e-05 1/K
45000 kPa | 0.00102 ± 2.5e-05 1/K | 0.00102 ± 2.5e-05 1/K | 0.00103 ± 2.5e-05 1/K | 0.00103 ± 2.5e-05 1/K | 0.00104 ± 2.6e-05 1/K | 0.00105 ± 2.6e-05 1/K | 0.00105 ± 2.6e-05 1/K | 0.00106 ± 2.6e-05 1/K
50000 kPa | 0.001 ± 2.5e-05 1/K | 0.00101 ± 2.5e-05 1/K | 0.00101 ± 2.5e-05 1/K | 0.00102 ± 2.5e-05 1/K | 0.00103 ± 2.5e-05 1/K | 0.00103 ± 2.5e-05 1/K | 0.00103 ± 2.5e-05 1/K | 0.00103 ± 2.5e-05 1/K
55000 kPa | 0.000986 ± 2.4e-05 1/K | 0.000992 ± 2.4e-05 1/K | 0.000998 ± 2.4e-05 1/K | 0.001 ± 2.5e-05 1/K | 0.00101 ± 2.5e-05 1/K | 0.00101 ± 2.5e-05 1/K | 0.00102 ± 2.5e-05 1/K | 0.00102 ± 2.5e-05 1/K

CCC#N [propanenitrile]
isobaric coefficient of expansion
Settings | 278.15 K | 288.15 K | 298.15 K | 308.15 K | 318.15 K | 328.15 K | 338.15 K | 348.15 K
5000 kPa | 0.00122 ± 3e-05 1/K | 0.00125 ± 3.1e-05 1/K | 0.00128 ± 3.1e-05 1/K | 0.0013 ± 3.2e-05 1/K | 0.00135 ± 3.3e-05 1/K | 0.00139 ± 3.4e-05 1/K | 0.00144 ± 3.5e-05 1/K | 0.0015 ± 3.7e-05 1/K
10000 kPa | 0.0012 ± 2.9e-05 1/K | 0.00121 ± 3e-05 1/K | 0.00123 ± 3e-05 1/K | 0.00126 ± 3.1e-05 1/K | 0.00129 ± 3.2e-05 1/K | 0.00133 ± 3.3e-05 1/K | 0.00136 ± 3.3e-05 1/K | 0.00141 ± 3.5e-05 1/K
15000 kPa | 0.00117 ± 2.9e-05 1/K | 0.00118 ± 2.9e-05 1/K | 0.0012 ± 2.9e-05 1/K | 0.00121 ± 3e-05 1/K | 0.00125 ± 3.1e-05 1/K | 0.00127 ± 3.1e-05 1/K | 0.0013 ± 3.2e-05 1/K | 0.00133 ± 3.3e-05 1/K
20000 kPa | 0.00114 ± 2.8e-05 1/K | 0.00115 ± 2.8e-05 1/K | 0.00117 ± 2.9e-05 1/K | 0.00118 ± 2.9e-05 1/K | 0.0012 ± 2.9e-05 1/K | 0.00122 ± 3e-05 1/K | 0.00125 ± 3.1e-05 1/K | 0.00127 ± 3.1e-05 1/K
25000 kPa | 0.00111 ± 2.7e-05 1/K | 0.00112 ± 2.8e-05 1/K | 0.00113 ± 2.8e-05 1/K | 0.00114 ± 2.8e-05 1/K | 0.00116 ± 2.8e-05 1/K | 0.00118 ± 2.9e-05 1/K | 0.0012 ± 2.9e-05 1/K | 0.00122 ± 3e-05 1/K
30000 kPa | 0.00109 ± 2.7e-05 1/K | 0.0011 ± 2.7e-05 1/K | 0.00111 ± 2.7e-05 1/K | 0.00111 ± 2.7e-05 1/K | 0.00113 ± 2.8e-05 1/K | 0.00114 ± 2.8e-05 1/K | 0.00115 ± 2.8e-05 1/K | 0.00117 ± 2.9e-05 1/K
35000 kPa | 0.00107 ± 2.6e-05 1/K | 0.00107 ± 2.6e-05 1/K | 0.00108 ± 2.6e-05 1/K | 0.00109 ± 2.7e-05 1/K | 0.0011 ± 2.7e-05 1/K | 0.00111 ± 2.7e-05 1/K | 0.00112 ± 2.7e-05 1/K | 0.00113 ± 2.8e-05 1/K
40000 kPa | 0.00104 ± 2.6e-05 1/K | 0.00105 ± 2.6e-05 1/K | 0.00105 ± 2.6e-05 1/K | 0.00106 ± 2.6e-05 1/K | 0.00106 ± 2.6e-05 1/K | 0.00107 ± 2.6e-05 1/K | 0.00107 ± 2.6e-05 1/K | 0.00108 ± 2.6e-05 1/K
45000 kPa | 0.00102 ± 2.5e-05 1/K | 0.00103 ± 2.5e-05 1/K | 0.00103 ± 2.5e-05 1/K | 0.00104 ± 2.5e-05 1/K | 0.00104 ± 2.5e-05 1/K | 0.00105 ± 2.6e-05 1/K | 0.00105 ± 2.6e-05 1/K | 0.00105 ± 2.6e-05 1/K
50000 kPa | 0.001 ± 2.5e-05 1/K | 0.00101 ± 2.5e-05 1/K | 0.00101 ± 2.5e-05 1/K | 0.00101 ± 2.5e-05 1/K | 0.00102 ± 2.5e-05 1/K | 0.00102 ± 2.5e-05 1/K | 0.00102 ± 2.5e-05 1/K | 0.00103 ± 2.5e-05 1/K
55000 kPa | 0.000991 ± 2.4e-05 1/K | 0.000992 ± 2.4e-05 1/K | 0.000993 ± 2.4e-05 1/K | 0.000994 ± 2.4e-05 1/K | 0.001 ± 2.5e-05 1/K | 0.001 ± 2.5e-05 1/K | 0.00101 ± 2.5e-05 1/K | 0.00101 ± 2.5e-05 1/K
